We go through 13 compounds from patent US11254705B2, “Cyclic peptide analogs and conjugates thereof” (Sirenas LLC, priority 2016, dated 2022).

As a reminder, the IC50 is the concentration needed to halve the response being measured. The low end stands for greater potency in that assay, the high end for weaker potency in that assay.

This test has as its system HCC1954 cells. The test can be described thus: Inhibition of HCC1954 cell growth (method analogous to BT-474). The class given is cell-based. As to conditions: Homo sapiens. The method, then: BT-474 human mammary gland ductal carcinoma cells were seeded in a clear polystyrene 96-well microculture plate (Corning® Costar® 96-well flat bottom plate, Cat. #3997) in a total volume of 90 μL/well. After 24 hours of incubation in a humidified incubator at 37° C. with 5% CO2 and 95% air, 10 μL of 10×, serially diluted test agents in growth medium were added to each well (10 pt dose response curve, highest concentration 10 μM of test agent). After 72 hours of culture in a humidified incubator at 37° C., in an atmosphere of 5% CO2 and 95% air, the plated cells and Cell Titer-Glo® (Protnega G7571) reagents were brought to room temperature to equilibrate for 30 minutes. 100 μL of Cell Titer-Glo® reagent was added to each well. The plate was shaken for two minutes and then left to equilibrate for ten minutes. The media/Cell Titer-Glo® reagent was transferred to a white polystyrene 96-well microculture plate (Corning® Costar® 96-well flat bottom plate, Cat. #3917) before reading luminescence on a Tecan GENios microplate reader.
Percent inhibition of cell growth was calculated relative to untreated control wells. The IC50 value for the test agents was determined using Prism 6.05 by curve-fitting of the data using the following four parameter-logistic equation:
[formula] where Top is the maximal % of control absorbance, Bottom is the minimal % of control absorbance at the highest agent concentration, Y is the % of control absorbance, X is the agent concentration, IC50 is the concentration of agent that inhibits cell growth by 50% compared to the control cells, and n is the slope of the curve.
Inhibitory response of test compounds against HCC1954 cells was determined using a method analogous to that used for BT-474 cells.
In the case of `C/C=C(\C)[C@H]1OC(=O)[C@@H](C)NC(=O)[C@H]([C@H](C)CC)NC(=O)CN(C)C(=O)[C@@H](Cc2ccccc2)N(C)C(=O)[C@H](C)NC(=O)[C@@H](CC(C)C)OC(=O)/C(C)=C/C[C@H](OC(=O)NCCc2ccc(O)cc2)[C@@H]1C` [Compound 10, (2R,5S,8R,14S,17R,20S,21S,22S,E)-8-benzyl-20-((E)-but-2-en-2-yl)-14-((R)-sec-butyl)-2-isobutyl-5,7,10,17,21,25-hexamethyl-3,6,9,12,15,18,26-heptaoxo-1,19-dioxa-4,7,10,13,16-pentaazacyclohexacos-24-en-22-yl (4-hydroxyphenethyl)carbamate], the IC50 was determined as 1.36 nM. `C/C=C(\C)[C@H]1OC(=O)[C@@H](C)NC(=O)[C@H]([C@H](C)CC)NC(=O)CN(C)C(=O)[C@@H](Cc2ccccc2)N(C)C(=O)[C@H](C)NC(=O)[C@@H](CC(C)C)OC(=O)/C(C)=C/C[C@H](OC(=O)NCc2ccc(CO)cc2)[C@@H]1C` [Compound 12, (2R,5S,8R,14S,17R,20S,21S,22S,E)-8-benzyl-20-((E)-but-2-en-2-yl)-14-((R)-sec-butyl)-2-isobutyl-5,7,10,17,21,25-hexamethyl-3,6,9,12,15,18,26-heptaoxo-1,19-dioxa-4,7,10,13,16-pentaazacyclohexacos-24-en-22-yl (4-(hydroxymethyl)benzyl)carbamate] returned an IC50 of 3.29 nM. The value for `C/C=C(\C)[C@H]1OC(=O)[C@@H](C)NC(=O)[C@H]([C@H](C)CC)NC(=O)CN(C)C(=O)[C@@H](Cc2ccccc2)N(C)C(=O)[C@H](C)NC(=O)[C@@H](CC(C)C)OC(=O)/C(C)=C/C[C@H](OC(=O)NCCCCCCCCCCCCO)[C@@H]1C` [Compound 13, (2R,5S,8R,14S,17R,20S,21S,22S,E)-8-benzyl-20-((E)-but-2-en-2-yl)-14-((R)-sec-butyl)-2-isobutyl-5,7,10,17,21,25-hexamethyl-3,6,9,12,15,18,26-heptaoxo-1,19-dioxa-4,7,10,13,16-pentaazacyclohexacos-24-en-22-yl (12-hydroxydodecyl)carbamate] was 18.1 nM; that for `C/C=C(\C)[C@H]1OC(=O)[C@@H](C)NC(=O)[C@H]([C@H](C)CC)NC(=O)CN(C)C(=O)[C@@H](Cc2ccc(Cl)cc2)N(C)C(=O)[C@H](C)NC(=O)[C@@H](CC(C)C)OC(=O)/C(C)=C/C[C@H](OC(=O)NCCCCCO)[C@@H]1C` [Compound 16, (2R,5S,8R,14S,17R,20S,21S,22S,E)-20-((E)-but-2-en-2-yl)-14-((R)-sec-butyl)-8-(4-chlorobenzyl)-2-isobutyl-5,7,10,17,21,25-hexamethyl-3,6,9,12,15,18,26-heptaoxo-1,19-dioxa-4,7,10,13,16-pentaazacyclohexacos-24-en-22-yl (5-hydroxypentyl)carbamate] was 0.1 nM; that for `C/C=C(\C)[C@H]1OC(=O)[C@@H](C)NC(=O)[C@H]([C@H](C)CC)NC(=O)CN(C)C(=O)[C@@H](Cc2ccc(Cl)cc2)N(C)C(=O)[C@H](C)NC(=O)[C@@H](CC(C)C)OC(=O)/C(C)=C/C[C@H](OC(=O)NCCOCCO)[C@@H]1C` [Compound 17, (2R,5S,8R,14S,17R,20S,21S,22S,E)-20-((E)-but-2-en-2-yl)-14-((R)-sec-butyl)-8-(4-chlorobenzyl)-2-isobutyl-5,7,10,17,21,25-hexamethyl-3,6,9,12,15,18,26-heptaoxo-1,19-dioxa-4,7,10,13,16-pentaazacyclohexacos-24-en-22-yl (2-(2-hydroxyethoxy)ethyl)carbamate] was 4.15 nM. `C/C=C(\C)[C@H]1OC(=O)[C@@H](C)NC(=O)[C@H]([C@H](C)CC)NC(=O)CN(C)C(=O)[C@@H](Cc2ccc(Cl)cc2)N(C)C(=O)[C@H](C)NC(=O)[C@@H](CC(C)C)OC(=O)/C(C)=C/C[C@H](OC(=O)NCCc2ccc(O)cc2)[C@@H]1C` [Compound 18, (2R,5S,8R,14S,17R,20S,21S,22S,E)-20-((E)-but-2-en-2-yl)-14-((R)-sec-butyl)-8-(4-chlorobenzyl)-2-isobutyl-5,7,10,17,21,25-hexamethyl-3,6,9,12,15,18,26-heptaoxo-1,19-dioxa-4,7,10,13,16-pentaazacyclohexacos-24-en-22-yl (4-hydroxyphenethyl)carbamate] came in with an IC50 of 2.37 nM. In turn, `C/C=C(\C)[C@H]1OC(=O)[C@@H](C)NC(=O)[C@H](C(C)CC)NC(=O)CN(C)C(=O)[C@@H](Cc2ccc(Cl)cc2)N(C)C(=O)[C@H](C)NC(=O)[C@@H](CC(C)C)OC(=O)/C(C)=C/C[C@H](OC(=O)N(C)CCCCCCNC)[C@@H]1C` (stereo partly drawn) [Compound 19, (2R,5S,8R,14S,17R,20S,21S,22S,E)-20-((E)-but-2-en-2-yl)-14-((R)-sec-butyl)-8-(4-chlorobenzyl)-2-isobutyl-5,7,10,17,21,25-hexamethyl-3,6,9,12,15,18,26-heptaoxo-1,19-dioxa-4,7,10,13,16-pentaazacyclohexacos-24-en-22-yl methyl (6-(methylamino)hexyl)carbamate] displayed an IC50 of 4.16 nM. Against the preceding compound, the IC50 is about 1.8-fold higher.

With `C/C=C(\C)[C@H]1OC(=O)[C@@H](C)NC(=O)[C@H]([C@H](C)CC)NC(=O)CN(C)C(=O)[C@@H](Cc2ccc(Cl)cc2)N(C)C(=O)[C@H](C)NC(=O)[C@@H](CC(C)C)OC(=O)/C(C)=C/C[C@H](OC(=O)N(C)CCCCCCCCCCCCNC)[C@@H]1C` [Compound 20, (2R,5S,8R,14S,17R,20S,21S,22S,E)-20-((E)-but-2-en-2-yl)-14-((R)-sec-butyl)-8-(4-chlorobenzyl)-2-isobutyl-5,7,10,17,21,25-hexamethyl-3,6,9,12,15,18,26-heptaoxo-1,19-dioxa-4,7,10,13,16-pentaazacyclohexacos-24-en-22-yl methyl(12-(methylamino)dodecyl)carbamate], the IC50 came out at 15.4 nM.

With `C/C=C(\C)[C@H]1OC(=O)C(C)(C)NC(=O)[C@H]([C@H](C)CC)NC(=O)CN(C)C(=O)[C@@H](Cc2ccc(Cl)cc2)N(C)C(=O)[C@H](C)NC(=O)[C@@H](CC(C)C)OC(=O)/C(C)=C/C[C@H](O)[C@@H]1C` [Compound 21, (6S,12R,15S,18R,24S,25S,26S,E)-26-((E)-but-2-en-2-yl)-6-((R)-sec-butyl)-12-(4-chlorobenzyl)-24-hydroxy-18-isobutyl-3,3,10,13,15,21,25-heptamethyl-1,19-dioxa-4,7,10,13,16-pentaazacyclohexacos-21-ene-2,5,8,11,14,17,20-heptaone], the midpoint of inhibition, the IC50, lay at 0.56 nM. The value for `C/C=C(\C)[C@H]1OC(=O)C(C)(C)NC(=O)[C@H](C(C)CC)NC(=O)CN(C)C(=O)[C@@H](Cc2ccc(Cl)cc2)N(C)C(=O)[C@H](C)NC(=O)[C@@H](CC(C)C)OC(=O)/C(C)=C/C[C@H](OC(=O)NCCCCCO)[C@@H]1C` (stereo partly drawn) [Compound 22, (2R,5S,8R,14S,20S,21S,22S,E)-20-((E)-but-2-en-2-yl)-14-((R)-sec-butyl)-8-(4-chlorobenzyl)-2-isobutyl-5,7,10,17,17,21,25-heptamethyl-3,6,9,12,15,18,26-heptaoxo-1,19-dioxa-4,7,10,13,16-pentaazacyclohexacos-24-en-22-yl(5-hydroxypentyl)carbamate] was 7.26 nM. Consider `C/C=C(\C)[C@H]1OC(=O)C(C)(C)NC(=O)[C@H]([C@H](C)CC)NC(=O)CN(C)C(=O)[C@@H](Cc2ccc(Cl)cc2)N(C)C(=O)[C@H](C)NC(=O)[C@@H](CC(C)C)OC(=O)/C(C)=C/C[C@H](OC(=O)N(C)CCCCCCNC)[C@@H]1C` [Compound 23, (2R,5S,8R,14S,20S,21S,22S,E)-20-((E)-but-2-en-2-yl)-14-((R)-sec-butyl)-8-(4-chlorobenzyl)-2-isobutyl-5,7,10,17,17,21,25-heptamethyl-3,6,9,12,15,18,26-heptaoxo-1,19-dioxa-4,7,10,13,16-pentaazacyclohexacos-24-en-22-yl methyl(6-(methylamino)hexyl)carbamate], for which the IC50 amounted to 0.47 nM. On to `C/C=C(\C)[C@H]1OC(=O)C(C)(C)NC(=O)[C@H]([C@H](C)CC)NC(=O)CN(C)C(=O)[C@@H](Cc2ccc(Cl)cc2)N(C)C(=O)[C@H](C)NC(=O)[C@@H](CC(C)C)OC(=O)/C(C)=C/C[C@H](OC(=O)N(C)CCCCCCN(C)C(C)=O)[C@@H]1C` [Compound 24, (2R,5S,8R,14S,20S,21S,22S,E)-20-((E)-but-2-en-2-yl)-14-((R)-sec-butyl)-8-(4-chlorobenzyl)-2-isobutyl-5,7,10,17,17,21,25-heptamethyl-3,6,9,12,15,18,26-heptaoxo-1,19-dioxa-4,7,10,13,16-pentaazacyclohexacos-24-en-22-yl methyl(6-(N-methylacetamido)hexyl)carbamate], for which the IC50 was 2.07 nM. This IC50 is about 4.4-fold higher than that of the compound before.

In turn, `C/C=C(\C)[C@H]1OC(=O)C(C)(C)NC(=O)[C@H]([C@H](C)CC)NC(=O)CN(C)C(=O)[C@@H](Cc2ccc(Cl)cc2)N(C)C(=O)[C@H](C)NC(=O)[C@@H](CC(C)C)OC(=O)/C(C)=C/C[C@H](OC(=O)N2CCN(CCO)CC2)[C@@H]1C` [Compound 26, (2R,5S,8R,14S,20S,21S,22S,E)-20-((E)-but-2-en-2-yl)-14-((R)-sec-butyl)-8-(4-chlorobenzyl)-2-isobutyl-5,7,10,17,17,21,25-heptamethyl-3,6,9,12,15,18,26-heptaoxo-1,19-dioxa-4,7,10,13,16-pentaazacyclohexacos-24-en-22-yl 4-(2-hydroxyethyl)piperazine-1-carboxylate] returned an IC50 of 1.36 nM.
